Key:
Type in all cases: cell-based
[1] = molecular target: T1, PTGER4 (EP4) (Homo sapiens, UniProt P35408); assay: hEP4 b-Arrestin Assay (PathHunter HEK 293 PTGER4 b-arrestin cells, PGE2 20 nM); settings: antagonistic activity, beta-arrestin assay, HEK 293 PTGER4 cells, PGE2 20 nM (EC80); read-out: hEP4 b-arr IC50
T1 construct: host or cells: HEK 293 (PathHunter, stably transfected)
How it was run: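 PathHunter HEK 293 EP4 b-arrestin enzyme-complementation cells preincubated 15 min at 37° C with compound (10 μM-2 nM or 1 μM-0.2 nM), then stimulated 120 min with 20 nM PGE2 (EC80). Chemiluminescence read; IC50 from duplicate % activity vs DMSO, one-site fit, averaged over repeats.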

[2] = molecular target: T2, PTGER2 (EP2) (Homo sapiens, UniProt P43116); assay: hEP2 b-Arrestin Assay (PathHunter HEK 293 PTGER2 b-arrestin cells, PGE2 5 μM); settings: antagonistic activity, beta-arrestin assay, HEK 293 PTGER2 cells, PGE2 5 μM (EC80); read-out: hEP2 b-arr IC50
T2 construct: host or cells: HEK 293 (PathHunter, stably transfected)
How it was run: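 PathHunter enzyme-fragment complementation in HEK 293 cells: compounds (10 μM-2 nM or 1 μM-0.2 nM) pre-incubated 15 min at 37 °C, then 5 μM PGE2 (EC80) for 120 min at 37 °C. Chemiluminescence read after 1 h detection; IC50 from duplicate dose-response fits, means of repeats.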

[3] = molecular target: T3, EP4 (Homo sapiens, UniProt P35408); assay: hEP4 cAMP Assay (BT549 breast cancer cells, HTRF cAMP, PGE2 6 nM); settings: antagonistic activity, PGE2 6 nM (EC80)
T3 construct: BT549 breast cancer cells, express high endogenous EP4 levels and very low EP2 levels; host or cells: BT549 breast cancer cells
How it was run: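 BT549 cells (endogenous EP4, very low EP2) in HBSS/20 mM HEPES/0.2% BSA/2 mM IBMX, pre-incubated 45 min RT with compound, then stimulated 30 min RT with PGE2 6 nM (EC80). cAMP read by HTRF competitive immunoassay (665/620 nm), converted via calibrator to % of DMSO control; IC50 from duplicate dose-response curves.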

[4] = molecular target: T4, EP2 (Homo sapiens, UniProt P43116); assay: hEP2 cAMP Assay (SF295 glioblastoma cells, HTRF cAMP, PGE2 75 nM); settings: antagonistic activity, PGE2 75 nM (EC80)
T4 construct: SF295 glioblastoma cells express high endogenous EP2 and no EP4; host or cells: SF295 glioblastoma cells
How it was run: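 IC50 values derive from duplicate-point curves of percent cAMP relative to DMSO, read by HTRF (665/620 nm) against a cAMP calibrator. Compounds (30 μM to 0.01 nM ranges) were given 45 min at room temperature before 30 min with 75 nM PGE2, in EP2-only SF295 cells with 2 mM IBMX.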

T1 sequence (P35408 whole entry): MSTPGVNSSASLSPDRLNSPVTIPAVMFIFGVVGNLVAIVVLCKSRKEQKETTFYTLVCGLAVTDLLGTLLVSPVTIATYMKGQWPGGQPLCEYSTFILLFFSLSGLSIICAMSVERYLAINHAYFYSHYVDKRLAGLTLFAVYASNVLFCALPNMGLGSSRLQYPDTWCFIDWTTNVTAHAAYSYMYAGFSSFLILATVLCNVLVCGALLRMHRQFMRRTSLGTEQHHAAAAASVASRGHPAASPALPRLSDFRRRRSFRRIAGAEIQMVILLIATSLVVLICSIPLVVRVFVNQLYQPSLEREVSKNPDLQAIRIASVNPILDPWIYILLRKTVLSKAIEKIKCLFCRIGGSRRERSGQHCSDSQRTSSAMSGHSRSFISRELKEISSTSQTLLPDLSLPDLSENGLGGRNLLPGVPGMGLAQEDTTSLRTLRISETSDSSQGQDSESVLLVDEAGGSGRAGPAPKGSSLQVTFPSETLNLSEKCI
T3 sequence (P35408 whole entry): as above
T4 sequence (P43116 whole entry): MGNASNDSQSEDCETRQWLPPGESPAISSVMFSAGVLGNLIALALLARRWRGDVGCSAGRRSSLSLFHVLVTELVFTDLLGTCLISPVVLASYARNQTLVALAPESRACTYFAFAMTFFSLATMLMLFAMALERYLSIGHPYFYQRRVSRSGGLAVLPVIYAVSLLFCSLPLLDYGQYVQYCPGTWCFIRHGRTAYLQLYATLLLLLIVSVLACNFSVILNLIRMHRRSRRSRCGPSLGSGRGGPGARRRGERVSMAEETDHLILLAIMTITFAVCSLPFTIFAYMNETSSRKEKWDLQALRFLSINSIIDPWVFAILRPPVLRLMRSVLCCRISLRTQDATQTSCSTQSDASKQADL
T2 sequence (P43116 whole entry): as above

CSc1cc(-c2cc(NCCc3ccc(Br)c4ccccc34)ncn2)ccc1C(=O)O [Example 171, 4-{6-[2-(4-Bromo-naphthalen-1-yl)-ethylamino]-pyrimidin-4-yl}-2-methylsulfanyl-benzoic acid]
IC50 [1]: 149 nM
IC50 [2]: 68 nM
IC50 [3]: 130 nM
IC50 [4]: 88 nM

CSc1cc(-c2cc(NCCc3cccc4c(C)cccc34)ncn2)ccc1C(=O)O [Example 173, 4-{6-[2-(5-Methyl-naphthalen-1-yl)-ethylamino]-pyrimidin-4-yl}-2-methylsulfanyl-benzoic acid]
IC50 [1]: 175 nM
IC50 [2]: 10 nM
IC50 [3]: 140 nM
IC50 [4]: 15 nM

CCOc1cc(-c2cc(NCCc3c(OCC)ccc4ccccc34)ncn2)ccc1C(=O)O [Example 179, 2-Ethoxy-4-{6-[2-(2-ethoxy-naphthalen-1-yl)-ethylamino]-pyrimidin-4-yl}-benzoic acid]
IC50 [1]: 934 nM
IC50 [2]: 4 nM
IC50 [3]: 1500 nM
IC50 [4]: 8 nM

CCOc1cc(-c2cc(NCCc3ccc(Br)c4ccccc34)ncn2)ccc1C(=O)O [Example 182, 4-{6-[2-(4-Bromo-naphthalen-1-yl)-ethylamino]-pyrimidin-4-yl}-2-ethoxy-benzoic acid]
IC50 [1]: 193 nM
IC50 [2]: 142 nM
IC50 [3]: 182 nM
IC50 [4]: 209 nM

CCOc1cc(-c2cc(NCCc3cccc4c(C)cccc34)ncn2)ccc1C(=O)O [Example 184, 2-Ethoxy-4-{6-[2-(5-methyl-naphthalen-1-yl)-ethylamino]-pyrimidin-4-yl}-benzoic acid]
IC50 [1]: 375 nM
IC50 [2]: 27 nM
IC50 [3]: 330 nM
IC50 [4]: 48 nM

CCOc1cc(-c2cc(NCCc3cccc4ncccc34)ncn2)sc1-c1noc(=O)[nH]1 [Example 188, 3-{3-Ethoxy-5-[6-(2-quinolin-5-yl-ethylamino)-pyrimidin-4-yl]-thiophen-2-yl}-[1,2,4]oxadiazol-5(4H)-one]
IC50 [1]: 282 nM
IC50 [2]: 59 nM
IC50 [3]: 22 nM
IC50 [4]: 324 nM

CCc1nc(-c2cc(NCCc3c(OC)ccc4ccccc34)ncn2)sc1-c1noc(=O)[nH]1 [Example 190, 3-(4-Ethyl-2-{6-[2-(2-methoxy-naphthalen-1-yl)-ethylamino]-pyrimidin-4-yl}-thiazol-5-yl)-[1,2,4]oxadiazol-5(4H)-one]
IC50 [1]: 34 nM
IC50 [2]: 13 nM
IC50 [3]: 1250 nM
IC50 [4]: 8 nM

Reference: patent US11446298B2, “Pyrimidine derivatives” (Idorsia Pharmaceuticals Ltd, priority 2017, dated 2022)
